Laboratory results taken from article PMC3638638, “Metabonomics Combined with UPLC-MS Chemical Profile for Discovery of Antidepressant Ingredients of a Traditional Chinese Medicines Formula, Chaihu-Shu-Gan-San” (Evidence-based Complementary and Alternative Medicine : eCAM, 2013).
Where a name gives a salt, the structure may show the parent alone. Read-outs that look alike come from different tables or passages of the source.

Assays:
rat MAO-A = target: T1, rat MAO-A (Rattus norvegicus, UniProt P21396); assay: Monoamine oxidase A (MAO-A) activity assay, spectrophotometric enzymatic kit; format: biochemical
T1 sequence (P21396 1-526): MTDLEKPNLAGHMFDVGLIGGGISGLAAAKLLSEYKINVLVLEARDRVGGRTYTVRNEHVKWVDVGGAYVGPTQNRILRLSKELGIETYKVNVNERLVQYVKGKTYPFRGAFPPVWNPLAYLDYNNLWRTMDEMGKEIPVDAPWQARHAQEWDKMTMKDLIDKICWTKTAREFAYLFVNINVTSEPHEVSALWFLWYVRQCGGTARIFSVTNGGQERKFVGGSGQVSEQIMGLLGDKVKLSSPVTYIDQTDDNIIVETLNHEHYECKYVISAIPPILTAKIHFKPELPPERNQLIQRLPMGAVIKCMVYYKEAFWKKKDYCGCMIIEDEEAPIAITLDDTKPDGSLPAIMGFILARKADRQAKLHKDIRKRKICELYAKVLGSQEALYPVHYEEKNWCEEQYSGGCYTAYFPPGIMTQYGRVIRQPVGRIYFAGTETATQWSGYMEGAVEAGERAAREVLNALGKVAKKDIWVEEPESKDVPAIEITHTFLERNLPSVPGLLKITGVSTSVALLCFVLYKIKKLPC
Protocol: MAO was purified from the rat liver according to the Gómez method after minor modification. The liver tissue was rapidly removed into ice cold homogenized (1 : 10, w/v) in 50 mM KH2PO4 buffer, pH 7.2, containing […]. Following centrifugation at 1000 g for 10 min, the supernatant was centrifuged at 10,000 g for 30 min to obtain crude mitochondrial pellet.
The MAO-A activity was measured by spectrophotometrically (Mapada, UV-3100, China) using enzymatic kits according to the instructions (Nanjing Jiancheng Institute of Biotechnology). IC50 values were used to estimate the inhibition calculated in relation to a sample of the enzyme treated under the same conditions without inhibitor, versus inhibitor concentration.

CUMS treated rats = assay: Ethological study of antidepressant effect on CUMS rat model (body weight, open-field test, sucrose consumption); format: in vivo; conditions: n=8
Protocol: 40 healthy, adult, male Wistar rats, weighing 200 ± 20 g each, were purchased from the Institute of Laboratory Animal Science, CAMS and PUMC (Beijing, China). The rats were housed individually in cages for one week to adapt to the environment under controlled conditions of 12 h light–12 h dark cycles (lights on from 6:00 a.m. to 6:00 p.m.), […], and temperature (20 ± 3°C) with commercial diet and water available ad libitum. All experimental procedures were approved by the Ethics Committee of the Institute of Medicinal Plant Development, CAMS & PUMC.
All rats except control group were subjected to a series of variable stimuli as previously described after minor modification.
The antidepressant effects of CSGS and QZ extracts were evaluated on a CUMS rat model, a well-validated animal model of depression (see supplementary material Table S1 available online at http://dx.doi.org/10.1155/2013/487158).

[1] = parameters: method as in PMID 3435494, PMID 20515525; conditions: must be hydrolyzed by gut microflora enzymes to aglycone naringenin; cited from earlier work
[2] = rat MAO-A as enzyme source (rat liver mitochondrial pellet)
[3] = rat MAO-A as enzyme source (rat liver mitochondrial pellet), read-out: IC50, inhibition against MAO-A activity

CNCC(O)c1ccc(O)cc1 (stereo not drawn) [Synephrine]
IC50 (rat MAO-A): 15.2 µM
IC50, inhibition against MAO-A activity (rat MAO-A; [2]): relatively weak

COc1ccc([C@@H]2CC(=O)c3c(O)cc(O[C@@H]4O[C@H](CO[C@@H]5O[C@@H](C)[C@H](O)[C@@H](O)[C@H]5O)[C@@H](O)[C@H](O)[C@H]4O)cc3O2)cc1O [Hesperidin]
IC50, inhibition against MAO-A activity (rat MAO-A; [2]): relatively weak
IC50 (rat MAO-A; [3]): 26.7 µM

CNCCC(Oc1ccc(C(F)(F)F)cc1)c1ccccc1 (stereo not drawn) [Positive control, Fluoxetine hydrochloride]
Body weight, 0W (CUMS treated rats; 0W (baseline), mean): 191.702 g
Sucrose consumption, 4W (CUMS treated rats; 4W of treatment): 17.5 g
Open-field test (OFT), 0W (CUMS treated rats; horizontal movements, 0W (baseline), mean): 81.7
Open-field test (OFT), 4W (CUMS treated rats; horizontal movements, 4W of treatment, mean): 61.4

COc1ccc([C@@H]2CC(=O)c3c(O)cc(O[C@@H]4O[C@H](CO)[C@@H](O)[C@H](O)[C@H]4O[C@@H]4O[C@@H](C)[C@H](O)[C@@H](O)[C@H]4O)cc3O2)cc1O [Neohesperidin]
IC50, inhibition against MAO-A activity (rat MAO-A; [2]): relatively weak
IC50 (rat MAO-A; [3]): 93.8 µM

C[C@@H]1O[C@@H](O[C@H]2[C@H](Oc3cc(O)c4c(c3)O[C@H](c3ccc(O)cc3)CC4=O)O[C@H](CO)[C@@H](O)[C@@H]2O)[C@H](O)[C@H](O)[C@H]1O [Naringin]
Absorption from the gastrointestinal tract in its original form [1]: poorly absorbed
IC50 (rat MAO-A): 5.82 µM
